Results: the supplement of paper PMC10307832

Legend:
Test in all cases: relative viability (nuclei count vs DMSO), 5 days (fraction); higher = more cells survive
[1] = compound: CC1=C(C(=NN1)C)CC2=C(C3=C(S2)N(C(=O)N(C3=O)C)CC(C)C)C(=O)N4C[C@@H](CO4)O + C[C@@H](Oc1cc(-c2cnn(C3CCNCC3)c2)cnc1N)c1c(Cl)ccc(F)c1Cl [Crizotinib] (partner 1 µM)
Method in brief: (§1)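 Lung cancer cell lines in 1536-well plates were dosed by pin tool the day after seeding, either with one drug alone or with a fixed anchor-drug dose plus five library-drug doses (not always all listed) in √10 steps. After 5 days, cells were fixed and their nuclei stained in one step (final 0.05% Triton X-100, 1% formaldehyde, 1 ug/ml Hoechst), then counted on 4× images. Relative viability is the nuclei count in treated wells divided by that in vehicle wells. Values are medians of duplicate plates.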

[2] = compound: CC1=C(C(=NN1)C)CC2=C(C3=C(S2)N(C(=O)N(C3=O)C)CC(C)C)C(=O)N4C[C@@H](CO4)O + Nc1nc2[nH]cc(CCc3ccc(C(=O)N[C@@H](CCC(=O)O)C(=O)O)cc3)c2c(=O)[nH]1 [Pemetrexed] (partner 0.2 µM)
Method in brief: as §1

[3] = compound: Cc1ccccc1C(C(=O)NC1CCCCC1)N(C(=O)Cn1ccnc1C)c1cccc(F)c1 [IDH-C35] + COc1cccc2cc(-c3nc([C@H]4CC[C@H](C(=O)O)CC4)n4ncnc(N)c34)[nH]c12 [OSI-027] (partner 0.5 µM)
Method in brief: as §1

[4] = compound: CC1=C(C(=NN1)C)CC2=C(C3=C(S2)N(C(=O)N(C3=O)C)CC(C)C)C(=O)N4C[C@@H](CO4)O + CCNC(=O)c1noc(-c2cc(C(C)C)c(O)cc2O)c1-c1ccc(CN2CCOCC2)cc1 [Luminespib] (partner 0.01 µM)
Method in brief: as §1

Row | Cell Line | relative viability ([1]; first compound 0.0025 µM) | relative viability ([1]; first compound 0.007906 µM) | relative viability ([1]; first compound 0.025 µM) | relative viability ([1]; first compound 0.07906 µM) | relative viability ([1]; first compound 0.25 µM) | relative viability ([2]; first compound 0.0025 µM) | relative viability ([2]; first compound 0.007906 µM) | relative viability ([2]; first compound 0.025 µM) | relative viability ([2]; first compound 0.07906 µM) | relative viability ([2]; first compound 0.25 µM) | relative viability ([3]; first compound 0.08 µM) | relative viability ([3]; first compound 0.253 µM) | relative viability ([3]; first compound 0.8 µM) | relative viability ([3]; first compound 8 µM) | relative viability ([4]; first compound 0.0025 µM) | relative viability ([4]; first compound 0.007906 µM) | relative viability ([4]; first compound 0.025 µM) | relative viability ([4]; first compound 0.07906 µM) | relative viability ([4]; first compound 0.25 µM) | relative viability ([3]; first compound 2.53 µM)
1 | HCC-366 | 0.661 | 1.13 | 0.622 | 0.641 | 0.825 | 0.178 | 0.191 | 0.133 | 0.172 | 0.181 | 0.968 | 0.955 | 0.806 | 0.785 | – | – | – | – | – | –
2 | HCC-827 | 0.96 | 0.965 | 0.924 | 0.929 | 1 | 0.245 | 0.27 | 0.272 | 0.288 | 0.237 | 0.78 | 0.662 | 0.694 | 0.771 | 0.748 | 0.445 | 0.56 | 0.513 | 0.482 | 0.71
3 | HOP-62 | 0.807 | 1.11 | 1 | 0.819 | 1.12 | 0.357 | 0.332 | 0.217 | 0.281 | 0.356 | 0.895 | 0.801 | 0.76 | 0.78 | 0.892 | 1.01 | 0.809 | 0.824 | 0.986 | 0.79
4 | IA-LM | 0.924 | 0.743 | 0.838 | 0.885 | 1.03 | – | – | – | – | – | – | – | – | – | – | – | – | – | – | –
5 | LC-2-ad | 0.486 | 0.451 | 0.411 | 0.454 | 0.638 | 0.27 | 0.25 | 0.26 | 0.285 | 0.261 | 0.9 | 0.908 | 0.806 | 0.899 | 0.967 | 1.13 | 0.968 | 1.01 | 1.17 | –
6 | LCLC-97TM1 | 0.448 | 0.436 | 0.371 | 0.361 | 0.692 | 0.179 | 0.19 | 0.173 | 0.152 | 0.202 | 0.557 | 0.614 | 0.508 | 0.421 | 0.611 | 0.774 | 0.889 | 0.698 | 0.801 | 0.447
7 | LCLC-103H | 0.936 | 1.03 | 1.02 | 0.991 | 1.17 | 0.437 | 0.474 | 0.444 | 0.459 | 0.505 | 0.458 | 0.487 | 0.473 | 0.457 | 0.966 | 0.885 | 0.976 | 0.939 | 1.1 | 0.428
8 | LK-2 | 0.234 | 0.206 | 0.218 | 0.276 | 0.204 | 0.307 | 0.347 | 0.245 | 0.3 | 0.257 | 0.213 | 0.226 | 0.188 | 0.236 | 0.219 | 0.148 | 0.223 | 0.202 | 0.186 | 0.24
9 | LOU-NH91 | 0.735 | 0.733 | 0.797 | 0.741 | 0.732 | 0.404 | 0.362 | 0.402 | 0.366 | 0.365 | 0.742 | 0.76 | 0.743 | 0.732 | 0.371 | 0.359 | 0.331 | 0.363 | 0.223 | 0.716
10 | LU99A | 0.542 | 0.592 | 0.533 | 0.566 | 0.648 | 0.18 | 0.175 | 0.159 | 0.211 | 0.179 | 0.335 | 0.329 | 0.276 | 0.286 | 0.337 | 0.297 | 0.203 | 0.224 | 0.237 | 0.293
11 | LXF-289 | 0.817 | 0.735 | 0.818 | 0.789 | 0.818 | 0.88 | 0.811 | 0.751 | 0.922 | 0.975 | 0.79 | 0.761 | 0.757 | 0.709 | 0.774 | 0.684 | 0.56 | 0.613 | 0.783 | 0.783
12 | NCI-H522 | – | – | – | – | – | 1.14 | 1.37 | 0.98 | 0.54 | 0.643 | 0.784 | 0.658 | 0.74 | 0.674 | 1.29 | 1.22 | 1.11 | 0.644 | 0.586 | 0.669
13 | NCI-H727 | 0.697 | 0.65 | 0.882 | 0.838 | 0.754 | – | – | – | – | – | 0.805 | 0.474 | 0.464 | 0.592 | 0.309 | 0.378 | 0.387 | 0.369 | 0.387 | 0.588
14 | NCI-H1299 | 0.961 | 0.993 | 0.923 | 0.941 | 0.948 | – | – | – | – | – | – | – | – | – | – | – | – | – | – | –
15 | NCI-H1395 | – | – | – | – | – | 0.925 | 0.791 | 0.827 | 0.796 | 0.718 | 0.66 | 0.701 | 0.709 | 0.579 | 0.768 | 0.785 | 0.607 | 0.461 | 0.631 | 0.618
16 | NCI-H1648 | – | – | – | – | – | 0.69 | 0.783 | 0.61 | 0.502 | 0.673 | 0.289 | 0.234 | 0.274 | 0.257 | – | – | – | – | – | 0.275
17 | NCI-H1703 | 0.84 | 0.828 | 0.898 | 0.688 | 0.777 | – | – | – | – | – | – | – | – | – | – | – | – | – | – | –
18 | NCI-H1793 | – | – | – | – | – | 0.973 | 1.13 | 0.883 | 0.825 | 0.609 | 0.225 | 0.256 | 0.279 | 0.262 | 0.608 | 0.17 | 0.208 | 0.164 | 0.187 | –
19 | NCI-H2342 | – | – | – | – | – | 0.748 | 0.859 | 0.719 | 0.72 | 0.65 | 0.564 | 0.629 | 0.564 | 0.587 | 0.768 | 0.79 | 0.855 | 0.784 | 0.602 | 0.616
20 | SW 900 | – | – | – | – | – | 0.489 | 0.456 | 0.489 | 0.529 | 0.434 | 0.496 | 0.584 | 0.601 | 0.625 | 0.186 | 0.182 | 0.16 | 0.189 | 0.15 | 0.353
